Reference: patent US20240299385A1 (ReWind Therapeutics NV, priority 2021, published 2024)

Biological target: T1, human GPR17 receptor (Homo sapiens, UniProt Q13304)
T1 construct: host or cells: HEK-293
Assay: Calcium mobilization functional assay (Fluo-8, FLIPR TETRA) in HEK-293 hGPR17 (Gα-q assay)
Format: cell-based
Conditions: antagonism of MDL29,951 (~EC80) induced Ca2+ signal; cell line (HEK-293 hGPR17 or HEK-293 Suchi5 hGPR17) not given
In short: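 Fluo-8-loaded HEK-293 hGPR17 cells (60 min dye loading, room temperature) were preincubated with compound for twenty minutes, then challenged with agonist MDL29,951 at ~EC80, 500 nM. Intracellular calcium release via Gα-q was recorded as FLIPR fluorescence for a further 2 minutes; compounds tested in duplicate.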

T1 sequence (Q13304 whole entry): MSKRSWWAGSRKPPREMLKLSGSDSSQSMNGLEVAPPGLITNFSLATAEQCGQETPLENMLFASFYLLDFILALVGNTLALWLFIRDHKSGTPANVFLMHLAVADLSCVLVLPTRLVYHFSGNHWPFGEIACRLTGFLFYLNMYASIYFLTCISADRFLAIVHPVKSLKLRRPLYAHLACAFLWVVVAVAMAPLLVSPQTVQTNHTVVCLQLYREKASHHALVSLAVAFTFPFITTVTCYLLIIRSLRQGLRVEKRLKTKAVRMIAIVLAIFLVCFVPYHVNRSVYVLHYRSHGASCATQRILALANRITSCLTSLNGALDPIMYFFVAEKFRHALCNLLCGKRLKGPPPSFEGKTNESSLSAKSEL

SMILES	IC50
O=S(=O)(Nc1nc(F)c(OCCF)cc1F)c1c[nH]c(-c2cc(Cl)ccc2F)c1 [Cpd 655, 5-(5-chloro-2-fluorophenyl)-N-[3,6-difluoro-5-(2-fluoroethoxy)pyridin-2-yl]-1H-pyrrole-3-sulfonamide]	< 500 nM
N#Cc1cc(F)c(NS(=O)(=O)c2c[nH]c(-c3ccns3)c2)cc1F [Cpd 656, N-(4-cyano-2,5-difluorophenyl)-5-(1,2-thiazol-5-yl)-1H-pyrrole-3-sulfonamide]	500 to 5000 nM
N#Cc1cc(F)c(NS(=O)(=O)c2c[nH]c(-c3cnsc3)c2)cc1F [Cpd 657, N-(4-cyano-2,5-difluorophenyl)-5-(1,2-thiazol-4-yl)-1H-pyrrole-3-sulfonamide]	500 to 5000 nM
N#Cc1cc(F)c(NS(=O)(=O)c2c[nH]c(-c3ncco3)c2)cc1F [Cpd 658, N-(4-cyano-2,5-difluorophenyl)-5-(1,3-oxazol-2-yl)-1H-pyrrole-3-sulfonamide]	500 to 5000 nM
Cc1csc(-c2cc(S(=O)(=O)Nc3cc(F)c(OC(F)F)cc3F)c[nH]2)c1 [Cpd 659, N-[4-(difluoromethoxy)-2,5-difluorophenyl]-5-(4-methylthiophen-2-yl)-1H-pyrrole-3-sulfonamide]	< 500 nM
COc1csc(-c2cc(S(=O)(=O)Nc3cc(F)c(OC(F)F)cc3F)c[nH]2)c1 [Cpd 660, N-[4-(difluoromethoxy)-2,5-difluorophenyl]-5-(4-methoxythiophen-2-yl)-1H-pyrrole-3-sulfonamide]	< 500 nM

Continued, values first:

IC50	SMILES
< 500 nM	COc1csc(-c2cc(S(=O)(=O)Nc3cc(F)c(C#N)cc3F)c[nH]2)n1 [Cpd 661, N-(4-cyano-2,5-difluorophenyl)-5-(4-methoxy-1,3-thiazol-2-yl)-1H-pyrrole-3-sulfonamide]
< 500 nM	N#Cc1ccc(F)c(-c2cc(S(=O)(=O)Nc3nc(F)c(OCCF)cc3F)c[nH]2)c1 [Cpd 662, 5-(5-cyano-2-fluorophenyl)-N-[3,6-difluoro-5-(2-fluoroethoxy)pyridin-2-yl]-1H-pyrrole-3-sulfonamide]
500 to 5000 nM	N#Cc1cc(F)c(NS(=O)(=O)c2c[nH]c(-c3cccc4c(C(F)(F)F)coc34)c2)cc1F [Cpd 663, N-(4-cyano-2,5-difluorophenyl)-5-[3-(trifluoromethyl)-1-benzofuran-7-yl]-1H-pyrrole-3-sulfonamide]
500 to 5000 nM	O=S(=O)(Nc1cc(F)c(OC(F)F)cc1F)c1c[nH]c(-c2csc(Cl)c2)c1 [Cpd 664, 5-(5-chlorothiophen-3-yl)-N-[4-(difluoromethoxy)-2,5-difluorophenyl]-1H-pyrrole-3-sulfonamide]
< 500 nM	O=S(=O)(Nc1nc(F)c(OCCF)cc1F)c1c[nH]c(-c2nccs2)c1 [Cpd 665, N-[3,6-difluoro-5-(2-fluoroethoxy)pyridin-2-yl]-5-(1,3-thiazol-2-yl)-1H-pyrrole-3-sulfonamide]
< 500 nM	O=S(=O)(Nc1cc(F)c(OC(F)F)cc1F)c1c[nH]c(-c2cc(Cl)cs2)c1 [Cpd 666, 5-(4-chlorothiophen-2-yl)-N-[4-(difluoromethoxy)-2,5-difluorophenyl]-1H-pyrrole-3-sulfonamide]
5000 to 50000 nM	N#Cc1cc(F)c(NS(=O)(=O)c2c[nH]c(-c3ncc(C(F)(F)F)s3)c2)cc1F [Cpd 667, N-(4-cyano-2,5-difluorophenyl)-5-[5-(trifluoromethyl)-1,3-thiazol-2-yl]-1H-pyrrole-3-sulfonamide]
500 to 5000 nM	O=S(=O)(Nc1cc(F)c(OC(F)F)cc1F)c1c[nH]c(-c2nc3ccccc3s2)c1 [Cpd 668, 5-(1,3-benzothiazol-2-yl)-N-[4-(difluoromethoxy)-2,5-difluorophenyl]-1H-pyrrole-3-sulfonamide]
< 500 nM	O=S(=O)(Nc1cc(F)c(C(F)(F)F)cc1F)c1c[nH]c(-c2ccoc2Cl)c1 [Cpd 669, 5-(2-chlorofuran-3-yl)-N-[2,5-difluoro-4-(trifluoromethyl)phenyl]-1H-pyrrole-3-sulfonamide]

Test system: NMDA receptor
Assay: not given
Conditions: selectivity, background statement; cited from earlier work

SMILES	fold more potent as an NMDA receptor antagonist than as a GPR17 activator
O=C(O)CCc1c(C(=O)O)[nH]c2cc(Cl)cc(Cl)c12 [MDL29,951, MDL 29,951]	approximately ten
